Assay results as given in the OPERA property sets (Mansouri et al. 2018).

For `Clc1ccc(-c2cc(Cl)c(Cl)c(Cl)c2Cl)cc1`, the melting point was 98 °C. With `CCCCCCCCCCCCCCCCCCC1CC(=O)OC1=O` (stereo not drawn) the ready biodegradability was “not readily biodegradable”. Work on `CC(CN1c2ccccc2Sc2ccccc21)[N+](C)(C)CCO.[Cl-]` (stereo not drawn) yielded a melting point of 233 °C. Work on `CCCCN(CCN(CCCC)C(=O)N1CCOCC1)C(=O)N1CCOCC1` yielded a melting point of 41.5 °C. `CCC(CC)c1ccccn1` gave a boiling point of 195 °C. For `CCC(C)(Cl)CC`, the boiling point was 116 °C. Compound `CCCCNC(C)=O` has a boiling point of 229 °C. With `CC(C)(c1cc(Br)c(OCC(Br)CBr)c(Br)c1)c1cc(Br)c(OCC(Br)CBr)c(Br)c1` (stereo not drawn) the ready biodegradability was “not readily biodegradable”. Work on `Cc1c(N)cccc1N` yielded a boiling point of 260 °C, a log10 vapour pressure (mmHg) of -2.61 and a melting point of 106 °C. With `CCCCC(C(C)=O)C(=O)OCC` (stereo not drawn) the boiling point was 222 °C. For `CC(C)(C)OO`, the log10 vapour pressure (mmHg) was 0.738, the melting point was -8 °C and the ready biodegradability was “not readily biodegradable”. In the case of `CC(C)(C)NC(=O)COC(=O)c1ccccc1`, the melting point is reported as 112 °C. `O=C(O)/C=C/c1ccccc1C(F)(F)F` showed a melting point of 206 °C. Compound `c1cnccn1` has a boiling point of 115 °C, a log10 vapour pressure (mmHg) of 1.03 and a melting point of 55 °C. The ready biodegradability was “readily biodegradable”. `CCCCCCCCCCCCCC(CCCCCCCCCC)CCCCCCCCCC` showed a melting point of 10.8 °C. In the case of `Cc1ncc(CO)c(N)n1`, the melting point is reported as 198 °C. In the case of `COP(N)(=O)SC` (stereo not drawn), the log10 Koc (L/kg) is reported as 0.7, the log10 vapour pressure (mmHg) is reported as -4.45 and the melting point is reported as 46 °C. `CC(C)C(C)(O)C(C)C` gave a boiling point of 156 °C. `CC(C=O)=Cc1ccccc1` showed a boiling point of 252 °C and a log10 vapour pressure (mmHg) of -1.82. For `C1C2CC3CC1CC(C2)C3`, the log10 biodegradation half-life (days) was 3 and the melting point was 205 °C. `Brc1ccc(Oc2ccccc2)c(Br)c1` showed a log10 Koa of 8.37. `COCC(C)OCC(C)OCC(C)O` (stereo not drawn) gave a boiling point of 250 °C and a log10 vapour pressure (mmHg) of -1.7. Compound `Cc1cc(O)c2c(c1)C(=O)c1cccc(O)c1C2=O` has a melting point of 196 °C. Work on `c1ccc(NC2CCCCC2)cc1` yielded a boiling point of 279 °C and a melting point of 16 °C. With `Cc1ccc(-c2cccc(C)c2)cc1` the boiling point was 289 °C and the melting point was 14.5 °C. In the case of `CN1C(=O)C(C)(C2=CCCCC2)C(=O)N=C1O` (stereo not drawn), the melting point is reported as 146 °C. Compound `C[C@@H]1O[C@@H](O[C@@H]2C=C3CC[C@@H]4[C@H](CC[C@]5(C)[C@@H](c6ccc(=O)oc6)CC[C@]45O)[C@@]3(C)CC2)[C@H](O)[C@H](O)[C@H]1O` has a melting point of 221 °C. With `Nc1ccc(Cl)c(C(=O)O)c1` the melting point was 188 °C. `Nc1ccc(C(=O)O)cn1` gave a melting point of 312 °C. Work on `N#Cc1ncnc2nc[nH]c12` yielded a melting point of 188 °C. Compound `CON(C)C(=O)Nc1ccc(Br)c(Cl)c1` has a log10 Koc (L/kg) of 2.7, a log10 vapour pressure (mmHg) of -6.4 and a melting point of 96 °C. `O=[N+]([O-])c1ccc(Oc2ccc(N=C=S)cc2)cc1` showed a melting point of 110 °C. `OCC1O[C@@H](Oc2ccccc2)[C@H](O)[C@@H](O)[C@H]1O` (stereo partly drawn) showed a melting point of 166 °C. Work on `Cc1ccc(CO)c(C)c1` yielded a boiling point of 232 °C and a melting point of 22 °C. `CCC(C)(CC)OC(N)=O` gave a log10 vapour pressure (mmHg) of -0.155 and a melting point of 56 °C. `CN=C=O` gave a boiling point of 39.5 °C, a log10 vapour pressure (mmHg) of 2.54 and a melting point of -45 °C. Compound `CC(c1c(O)c2ccccc2oc1=O)c1c(O)c2ccccc2oc1=O` has a melting point of 178 °C. Compound `CCCCCCCCCCCC1CCCC1` has a boiling point of 296 °C and a melting point of -10 °C. Work on `Nc1ccc(S(=O)(=O)Nc2ccc(Cl)nn2)cc1` yielded a melting point of 187 °C. `Clc1ccc2ccc(Cl)c(Cl)c2c1` showed a log10 Koa of 7.5. Compound `FC1(F)C(F)(F)C(F)(Cl)C1(F)Cl` (stereo not drawn) has a boiling point of 59.5 °C, a log10 vapour pressure (mmHg) of 2.36 and a melting point of -24.2 °C. `O=[N+]([O-])C(F)(F)F` gave a log10 vapour pressure (mmHg) of 3.85. With `FC(Cl)(Cl)CCl` the boiling point was 88 °C and the melting point was -140 °C. `COc1ccccc1CCN` gave a boiling point of 236 °C. `N#Cc1cc[n+]([O-])cc1` showed a melting point of 224 °C. `O=C1NC(=O)C2(CCc3ccccc3C2)N1` (stereo not drawn) gave a melting point of 268 °C. In the case of `CP(=O)(c1ccccc1)c1ccccc1`, the melting point is reported as 113 °C. For `c1cnoc1`, the boiling point was 95 °C and the log10 vapour pressure (mmHg) was 1.66. `CCCCOC(=O)C(C)C` gave a boiling point of 155 °C. Compound `CCCN(CCCl)c1c([N+](=O)[O-])cc(C(F)(F)F)cc1[N+](=O)[O-]` has a log10 Koc (L/kg) of 3.55, a log10 vapour pressure (mmHg) of -4.52 and a melting point of 42 °C. `Nc1c(C(=O)O)ccc2c1C(=O)c1ccccc1C2=O` showed a melting point of 296 °C. Work on `NC(=O)c1ccc(F)cc1` yielded a melting point of 156 °C. For `O=[N+]([O-])c1ccc(Cl)cc1Cl`, the boiling point was 258 °C, the melting point was 34 °C and the ready biodegradability was “not readily biodegradable”. `CC(=O)NO` showed a melting point of 90.5 °C. In the case of `FC(F)C(F)(F)OCC(Cn1cncn1)c1ccc(Cl)cc1Cl` (stereo not drawn), the log10 vapour pressure (mmHg) is reported as -5.87 and the melting point is reported as 6 °C. In the case of `C[C@]12CC[C@H](O)CC1=CC[C@@H]1[C@@H]2CC[C@]2(C)C(=O)CC[C@@H]12`, the melting point is reported as 140 °C. `N#Cc1ccc(N)cc1` gave a melting point of 84 °C. For `ClCI`, the boiling point was 109 °C and the log10 Henry constant (atm·m³/mol) was -3.06. With `CCN(CC)c1ccc(C=O)cc1` the melting point was 41 °C and the ready biodegradability was “not readily biodegradable”. In the case of `COC(=O)Nc1cccc(Cl)c1`, the log10 Koc (L/kg) is reported as 2.15. For `CCCCCCCCCCCCCCCCCCC#N`, the ready biodegradability was “readily biodegradable”. In the case of `CC(C)(c1cc(Br)c(O)c(Br)c1)c1cc(Br)c(O)c(Br)c1`, the melting point is reported as 181 °C and the ready biodegradability is reported as “not readily biodegradable”. `Nc1ccccc1N` showed a boiling point of 257 °C, a log10 vapour pressure (mmHg) of -2.69 and a melting point of 102 °C. For the same compound, the ready biodegradability was “not readily biodegradable”. Work on `O=C(Nc1cccc2ccccc12)c1ccccc1C(=O)[O][Na]` yielded a log10 Koc (L/kg) of 3.34. In the case of `COc1ccc(C(C)=O)cc1`, the boiling point is reported as 258 °C, the log10 vapour pressure (mmHg) is reported as -2.19 and the melting point is reported as 38.5 °C.
